Measurements as given in ChEMBL document CHEMBL4800728, “Data for DCP probe JNJ-54119936” (2021).
pIC50, pKi: −log10 of the molar value. Active and inactive are the calls of the source. No cut-off for these calls is given here.

Columns and labels:
[1] = target: Peroxisome proliferator-activated receptor alpha (Homo sapiens) (UniProt Q07869); experiment: PPARalpha Indigo Bioscience nuclear receptor screen; settings: Compound concentration 0.3 uM
[2] = target: Muscarinic acetylcholine receptor M2 (Homo sapiens) (UniProt P08172); settings: Compound concentration 10.0 uM
[3] = target: Serine/threonine-protein kinase PAK 4 (Homo sapiens) (UniProt O96013); experiment: PAK4 Invitrogen kinase panel; settings: Compound concentration 10.0 uM
[4] = target: Rho-associated protein kinase 1 (Homo sapiens) (UniProt Q13464); experiment: ROCK_I Invitrogen kinase panel; settings: Compound concentration 10.0 uM
[5] = target: Peroxisome proliferator-activated receptor alpha (Homo sapiens) (UniProt Q07869); experiment: (§1) PPARalpha In-house nuclear receptor screen; settings: Compound concentration 3.0 uM
[6] = target: Peroxisome proliferator-activated receptor alpha (Homo sapiens, UniProt Q07869); experiment: as §1
[7] = target: Tyrosine-protein kinase ZAP-70 (Homo sapiens) (UniProt P43403); experiment: ZAP_70 Invitrogen kinase panel; settings: Compound concentration 10.0 uM
[8] = target: Protein kinase C beta type (Homo sapiens) (UniProt P05771); experiment: PKCbetaI Invitrogen kinase panel; settings: Compound concentration 10.0 uM
[9] = target: T1, Oxysterols receptor LXR-beta (Homo sapiens) (UniProt P55055); experiment: (§2) LXRbeta In-house nuclear receptor screen; settings: Compound concentration 3.0 uM
T1 sequence (whole entry): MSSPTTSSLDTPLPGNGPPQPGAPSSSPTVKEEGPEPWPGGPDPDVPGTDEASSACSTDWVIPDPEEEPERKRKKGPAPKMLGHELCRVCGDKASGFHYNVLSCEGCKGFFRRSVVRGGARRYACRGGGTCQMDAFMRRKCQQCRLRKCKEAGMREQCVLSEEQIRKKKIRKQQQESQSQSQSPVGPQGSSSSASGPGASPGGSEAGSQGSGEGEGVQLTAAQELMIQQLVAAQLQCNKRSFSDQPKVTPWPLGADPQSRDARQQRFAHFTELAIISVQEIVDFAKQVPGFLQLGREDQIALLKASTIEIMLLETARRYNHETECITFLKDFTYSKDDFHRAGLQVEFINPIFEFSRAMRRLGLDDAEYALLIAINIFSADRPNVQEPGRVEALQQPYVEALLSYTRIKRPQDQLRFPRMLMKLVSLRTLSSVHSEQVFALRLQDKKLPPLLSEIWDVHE

[10] = target: Oxysterols receptor LXR-beta (Homo sapiens, UniProt P55055); experiment: as §2
[11] = target: Alpha-2C adrenergic receptor (Homo sapiens) (UniProt P18825); settings: Compound concentration 10.0 uM
[12] = target: Insulin receptor (Homo sapiens) (UniProt P06213); experiment: INSR Invitrogen kinase panel; settings: Compound concentration 10.0 uM
[13] = target: T2, Estrogen receptor (Homo sapiens) (UniProt P03372); experiment: ERalpha In-house nuclear receptor screen; settings: Compound concentration 3.0 uM
T2 sequence (whole entry): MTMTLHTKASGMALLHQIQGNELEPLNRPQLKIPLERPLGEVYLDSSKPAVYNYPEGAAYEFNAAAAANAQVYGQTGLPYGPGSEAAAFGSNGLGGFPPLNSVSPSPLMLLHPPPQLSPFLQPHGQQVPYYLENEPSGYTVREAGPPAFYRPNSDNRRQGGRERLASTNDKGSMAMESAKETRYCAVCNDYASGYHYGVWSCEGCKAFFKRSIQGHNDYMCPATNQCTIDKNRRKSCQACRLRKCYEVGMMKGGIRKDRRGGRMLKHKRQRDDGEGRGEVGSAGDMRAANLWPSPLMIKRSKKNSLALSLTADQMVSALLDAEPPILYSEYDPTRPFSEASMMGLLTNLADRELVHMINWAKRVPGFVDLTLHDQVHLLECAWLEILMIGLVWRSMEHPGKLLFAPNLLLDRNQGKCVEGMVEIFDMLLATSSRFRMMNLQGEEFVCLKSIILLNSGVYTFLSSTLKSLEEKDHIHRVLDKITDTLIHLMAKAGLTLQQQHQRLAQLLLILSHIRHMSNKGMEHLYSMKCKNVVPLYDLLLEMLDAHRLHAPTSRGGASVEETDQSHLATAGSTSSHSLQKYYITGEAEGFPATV

[14] = target: 5-hydroxytryptamine receptor 1A (Homo sapiens) (UniProt P08908); settings: Compound concentration 10.0 uM
[15] = target: 5-hydroxytryptamine receptor 1B (Homo sapiens) (UniProt P28222); settings: Compound concentration 10.0 uM
[16] = target: Death-associated protein kinase 3 (Homo sapiens) (UniProt O43293); experiment: ZIPK Invitrogen kinase panel; settings: Compound concentration 10.0 uM
[17] = target: 5-hydroxytryptamine receptor 1D (Homo sapiens) (UniProt P28221); settings: Compound concentration 10.0 uM
[18] = target: Nuclear receptor ROR-gamma (Homo sapiens, UniProt P51449); experiment: Human whole blood assay; assay type: tissue-based; parameters: compound concentration 10 uM
[19] = target: Glucocorticoid receptor (Homo sapiens, UniProt P04150); experiment: (§3) GR In-house nuclear receptor screen
[20] = target: T3, Glucocorticoid receptor (Homo sapiens) (UniProt P04150); experiment: as §3; settings: Compound concentration 3.0 uM
T3 sequence (whole entry): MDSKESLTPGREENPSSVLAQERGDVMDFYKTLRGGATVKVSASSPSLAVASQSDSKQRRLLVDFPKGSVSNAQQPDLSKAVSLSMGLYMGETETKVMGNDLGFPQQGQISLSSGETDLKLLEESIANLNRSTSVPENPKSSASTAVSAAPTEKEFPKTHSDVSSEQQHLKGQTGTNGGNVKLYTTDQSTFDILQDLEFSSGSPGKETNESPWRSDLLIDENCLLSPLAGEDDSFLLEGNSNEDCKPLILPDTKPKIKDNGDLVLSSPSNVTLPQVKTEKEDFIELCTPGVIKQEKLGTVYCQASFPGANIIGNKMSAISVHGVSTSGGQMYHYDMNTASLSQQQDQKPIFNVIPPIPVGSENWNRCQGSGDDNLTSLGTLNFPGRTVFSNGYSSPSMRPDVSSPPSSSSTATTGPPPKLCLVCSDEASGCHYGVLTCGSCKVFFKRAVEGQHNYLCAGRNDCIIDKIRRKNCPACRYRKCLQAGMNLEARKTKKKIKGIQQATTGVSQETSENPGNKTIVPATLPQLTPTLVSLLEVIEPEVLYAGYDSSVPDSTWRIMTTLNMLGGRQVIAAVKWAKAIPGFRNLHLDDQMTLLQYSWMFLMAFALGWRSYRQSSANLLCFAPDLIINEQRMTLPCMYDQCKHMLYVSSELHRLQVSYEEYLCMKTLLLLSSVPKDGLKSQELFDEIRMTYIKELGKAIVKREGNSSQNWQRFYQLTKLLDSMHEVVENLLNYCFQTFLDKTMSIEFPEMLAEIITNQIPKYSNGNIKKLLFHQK

[21] = target: 5-hydroxytryptamine receptor 7 (Homo sapiens) (UniProt P34969); settings: Compound concentration 10.0 uM
[22] = target: Alpha-1A adrenergic receptor (Homo sapiens) (UniProt P35348); settings: Compound concentration 10.0 uM
[23] = target: Sigma intracellular receptor 2 (Homo sapiens, UniProt Q5BJF2); experiment: GPCRScan assay: inhibition of Sigma 2; parameters: radioligand conc. used [nm] 5.0, parental cells HEKT
[24] = target: Alpha-1B adrenergic receptor (Homo sapiens) (UniProt P35368); settings: Compound concentration 10.0 uM

Chain of Peroxisome proliferator-activated receptor alpha (Homo sapiens) (Q07869 whole entry): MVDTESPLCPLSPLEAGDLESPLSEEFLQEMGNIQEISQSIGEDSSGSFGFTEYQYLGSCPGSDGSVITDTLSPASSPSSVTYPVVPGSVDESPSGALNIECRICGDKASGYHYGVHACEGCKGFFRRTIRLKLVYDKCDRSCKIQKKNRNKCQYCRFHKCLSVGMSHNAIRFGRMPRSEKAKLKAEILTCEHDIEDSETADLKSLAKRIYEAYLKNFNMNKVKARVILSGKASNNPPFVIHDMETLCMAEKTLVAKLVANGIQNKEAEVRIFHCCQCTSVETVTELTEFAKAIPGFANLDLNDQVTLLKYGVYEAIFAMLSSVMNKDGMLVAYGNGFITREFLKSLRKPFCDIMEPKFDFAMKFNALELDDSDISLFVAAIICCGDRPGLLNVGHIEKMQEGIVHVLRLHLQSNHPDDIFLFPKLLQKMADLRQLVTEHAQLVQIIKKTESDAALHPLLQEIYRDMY
Chain of Sigma intracellular receptor 2 (Q5BJF2 whole entry): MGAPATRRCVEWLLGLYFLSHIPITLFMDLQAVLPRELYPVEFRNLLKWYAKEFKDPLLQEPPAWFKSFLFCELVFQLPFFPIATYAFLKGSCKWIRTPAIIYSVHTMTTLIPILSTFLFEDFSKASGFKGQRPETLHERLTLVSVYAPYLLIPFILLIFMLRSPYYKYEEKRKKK
Chain of Death-associated protein kinase 3 (Homo sapiens) (O43293 whole entry, looked up): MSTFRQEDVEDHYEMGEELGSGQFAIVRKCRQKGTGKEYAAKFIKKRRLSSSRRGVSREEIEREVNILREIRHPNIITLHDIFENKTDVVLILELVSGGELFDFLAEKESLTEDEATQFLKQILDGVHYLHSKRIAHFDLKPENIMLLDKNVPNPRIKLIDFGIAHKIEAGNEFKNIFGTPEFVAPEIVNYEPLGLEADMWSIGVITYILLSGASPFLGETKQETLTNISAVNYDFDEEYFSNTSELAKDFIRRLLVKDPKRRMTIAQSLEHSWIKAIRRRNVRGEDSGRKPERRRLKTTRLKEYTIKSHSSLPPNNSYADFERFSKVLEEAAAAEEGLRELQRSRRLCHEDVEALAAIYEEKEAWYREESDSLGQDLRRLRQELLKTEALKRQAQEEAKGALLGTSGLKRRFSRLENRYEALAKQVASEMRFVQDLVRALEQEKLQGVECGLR
Chain of Muscarinic acetylcholine receptor M2 (Homo sapiens) (P08172 whole entry): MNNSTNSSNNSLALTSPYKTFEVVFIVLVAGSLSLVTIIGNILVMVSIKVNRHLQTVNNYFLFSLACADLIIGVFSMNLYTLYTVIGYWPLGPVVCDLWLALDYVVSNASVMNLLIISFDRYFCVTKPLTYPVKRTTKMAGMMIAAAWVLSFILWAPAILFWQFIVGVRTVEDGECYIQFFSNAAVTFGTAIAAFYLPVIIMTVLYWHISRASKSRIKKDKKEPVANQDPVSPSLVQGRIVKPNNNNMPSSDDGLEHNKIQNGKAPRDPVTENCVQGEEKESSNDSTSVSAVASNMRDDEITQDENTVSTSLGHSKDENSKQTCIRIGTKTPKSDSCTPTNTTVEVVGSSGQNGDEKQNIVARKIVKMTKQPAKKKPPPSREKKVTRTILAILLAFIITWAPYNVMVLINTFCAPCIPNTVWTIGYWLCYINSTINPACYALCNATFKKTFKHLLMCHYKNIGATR
Chain of 5-hydroxytryptamine receptor 7 (Homo sapiens) (P34969 whole entry): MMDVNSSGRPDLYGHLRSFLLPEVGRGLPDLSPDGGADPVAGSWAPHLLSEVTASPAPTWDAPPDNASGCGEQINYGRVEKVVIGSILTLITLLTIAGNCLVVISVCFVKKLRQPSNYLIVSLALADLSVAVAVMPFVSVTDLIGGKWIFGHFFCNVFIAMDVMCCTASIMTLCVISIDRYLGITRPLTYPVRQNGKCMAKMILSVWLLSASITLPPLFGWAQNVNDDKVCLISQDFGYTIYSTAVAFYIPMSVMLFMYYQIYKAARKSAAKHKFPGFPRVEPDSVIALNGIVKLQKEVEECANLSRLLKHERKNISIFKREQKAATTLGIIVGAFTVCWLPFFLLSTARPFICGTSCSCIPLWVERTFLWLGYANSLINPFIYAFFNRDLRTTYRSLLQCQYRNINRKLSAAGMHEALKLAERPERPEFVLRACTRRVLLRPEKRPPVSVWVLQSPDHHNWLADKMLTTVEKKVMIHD
Chain of 5-hydroxytryptamine receptor 1D (Homo sapiens) (P28221 whole entry): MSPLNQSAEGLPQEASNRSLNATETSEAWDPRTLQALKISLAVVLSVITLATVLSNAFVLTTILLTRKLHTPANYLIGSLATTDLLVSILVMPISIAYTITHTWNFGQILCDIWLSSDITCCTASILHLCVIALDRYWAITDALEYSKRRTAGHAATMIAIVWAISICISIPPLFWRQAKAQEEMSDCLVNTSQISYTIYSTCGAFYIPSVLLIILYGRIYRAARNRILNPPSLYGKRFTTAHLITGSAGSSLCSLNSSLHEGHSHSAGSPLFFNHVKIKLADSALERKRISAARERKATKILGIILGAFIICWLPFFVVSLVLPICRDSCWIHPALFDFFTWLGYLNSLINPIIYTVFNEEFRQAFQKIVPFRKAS
Chain of Peroxisome proliferator-activated receptor alpha (Q07869 whole entry): as the sequence (Q07869 whole entry) above
Chain of Alpha-1A adrenergic receptor (Homo sapiens) (P35348 whole entry): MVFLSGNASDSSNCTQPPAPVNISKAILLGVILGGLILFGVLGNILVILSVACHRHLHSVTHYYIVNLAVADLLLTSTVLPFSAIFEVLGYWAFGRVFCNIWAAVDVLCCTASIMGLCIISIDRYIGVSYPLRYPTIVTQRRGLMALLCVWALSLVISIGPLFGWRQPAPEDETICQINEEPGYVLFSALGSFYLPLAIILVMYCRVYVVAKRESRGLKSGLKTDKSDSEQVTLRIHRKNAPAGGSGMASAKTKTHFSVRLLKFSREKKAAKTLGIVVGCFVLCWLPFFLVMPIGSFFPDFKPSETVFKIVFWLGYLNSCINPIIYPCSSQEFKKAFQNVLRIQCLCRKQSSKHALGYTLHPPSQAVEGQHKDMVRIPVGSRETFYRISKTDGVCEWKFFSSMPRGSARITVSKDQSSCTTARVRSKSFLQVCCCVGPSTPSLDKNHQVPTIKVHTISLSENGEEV
Chain of Protein kinase C beta type (Homo sapiens) (P05771 2-671 limits assumed): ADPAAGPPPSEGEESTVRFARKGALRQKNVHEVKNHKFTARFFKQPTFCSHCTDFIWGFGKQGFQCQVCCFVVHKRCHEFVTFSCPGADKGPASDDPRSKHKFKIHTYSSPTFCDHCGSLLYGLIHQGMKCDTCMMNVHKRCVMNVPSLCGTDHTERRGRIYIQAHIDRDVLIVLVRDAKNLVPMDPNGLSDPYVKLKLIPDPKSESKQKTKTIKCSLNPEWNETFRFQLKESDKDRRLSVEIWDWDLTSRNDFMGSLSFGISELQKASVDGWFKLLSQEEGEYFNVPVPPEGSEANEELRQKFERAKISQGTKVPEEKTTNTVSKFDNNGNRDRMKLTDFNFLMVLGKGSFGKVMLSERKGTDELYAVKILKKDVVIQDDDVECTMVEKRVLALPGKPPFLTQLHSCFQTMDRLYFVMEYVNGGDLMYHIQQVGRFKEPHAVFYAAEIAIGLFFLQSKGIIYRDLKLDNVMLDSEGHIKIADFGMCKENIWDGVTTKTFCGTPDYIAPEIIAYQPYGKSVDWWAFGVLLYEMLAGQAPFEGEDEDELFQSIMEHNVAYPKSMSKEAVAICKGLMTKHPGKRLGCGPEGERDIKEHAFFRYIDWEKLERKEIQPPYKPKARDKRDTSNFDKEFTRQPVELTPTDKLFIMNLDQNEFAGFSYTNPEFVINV
Chain of Alpha-2C adrenergic receptor (Homo sapiens) (P18825 whole entry): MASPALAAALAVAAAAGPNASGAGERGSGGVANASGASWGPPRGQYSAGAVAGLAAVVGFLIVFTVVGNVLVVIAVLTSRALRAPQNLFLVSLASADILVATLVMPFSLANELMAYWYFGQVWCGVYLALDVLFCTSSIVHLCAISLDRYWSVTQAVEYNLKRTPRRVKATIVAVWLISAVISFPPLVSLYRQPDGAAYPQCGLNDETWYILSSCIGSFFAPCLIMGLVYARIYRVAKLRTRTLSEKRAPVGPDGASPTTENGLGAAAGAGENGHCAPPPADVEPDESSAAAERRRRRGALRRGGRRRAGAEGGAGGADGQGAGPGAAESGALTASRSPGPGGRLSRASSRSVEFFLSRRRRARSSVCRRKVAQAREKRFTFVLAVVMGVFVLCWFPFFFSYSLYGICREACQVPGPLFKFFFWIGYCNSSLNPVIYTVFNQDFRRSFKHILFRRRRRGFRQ
Chain of 5-hydroxytryptamine receptor 1A (Homo sapiens) (P08908 whole entry): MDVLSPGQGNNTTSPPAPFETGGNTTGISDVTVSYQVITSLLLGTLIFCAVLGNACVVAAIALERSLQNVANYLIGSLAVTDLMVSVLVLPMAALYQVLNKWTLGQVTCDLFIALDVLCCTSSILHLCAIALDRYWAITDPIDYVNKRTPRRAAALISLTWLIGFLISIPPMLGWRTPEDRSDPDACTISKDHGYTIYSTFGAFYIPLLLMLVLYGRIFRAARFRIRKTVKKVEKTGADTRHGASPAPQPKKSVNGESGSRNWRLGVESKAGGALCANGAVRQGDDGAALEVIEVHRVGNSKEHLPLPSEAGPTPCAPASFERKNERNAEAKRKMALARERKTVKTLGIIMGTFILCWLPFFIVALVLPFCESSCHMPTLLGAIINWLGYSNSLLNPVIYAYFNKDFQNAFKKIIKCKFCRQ
Chain of 5-hydroxytryptamine receptor 1B (Homo sapiens) (P28222 whole entry): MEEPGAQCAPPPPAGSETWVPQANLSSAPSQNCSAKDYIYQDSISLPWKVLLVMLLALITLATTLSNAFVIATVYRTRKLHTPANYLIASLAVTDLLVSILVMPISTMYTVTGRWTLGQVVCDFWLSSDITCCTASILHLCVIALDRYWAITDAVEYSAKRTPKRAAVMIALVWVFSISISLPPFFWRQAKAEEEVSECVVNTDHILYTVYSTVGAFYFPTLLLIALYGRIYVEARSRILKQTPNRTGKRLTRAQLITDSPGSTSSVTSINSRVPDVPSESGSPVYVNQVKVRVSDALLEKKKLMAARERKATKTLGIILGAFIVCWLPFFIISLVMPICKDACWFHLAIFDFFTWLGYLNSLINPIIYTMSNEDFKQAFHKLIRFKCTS

COc1nc2ccc([C@@](O)(c3ccccc3)C3CCN(C(C)=O)CC3)cc2c(Cl)c1Cc1ccc(-n2cccn2)cc1 [JNJ-54119936]
inhibition [1]: 1.34%
inhibition [2]: 1.16%
inhibition [3]: 4%
inhibition [4]: 4%
inhibition [5]: 17%
pIC50 [6]: ~5.30
inhibition [7]: 5%
inhibition [8]: 1%
inhibition [9]: 10%
pIC50 [10]: ~5.30
inhibition [11]: 39.8%
inhibition [12]: 3%
inhibition [13]: 16.8%
inhibition [14]: 16.6%
inhibition [15]: 8.87%
inhibition [16]: 10%
inhibition [17]: 5.9%
IC50 [18]: 0.332 µM (active)
pIC50 [19]: ~5.22
inhibition [20]: 13%
inhibition [21]: -2.29%
inhibition [22]: 10.3%
pKi ([23]; read-out: Ki): 6.20
Ki ([23]; read-out: pKi (converted)): 0.603 µM
inhibition [24]: -4.69%
